Source: patent US9399635B2, “Pyrazole derivative” (GREEN TECH CO., LTD., priority 2011, dated 2016)

Tests used:
[1] = target: T1, recombinant human β-secretase (Homo sapiens, UniProt P56817); test: Determination of β-secretase inhibitory activity (BACE-1 FRET assay Kit); format: biochemical; details: recombinant human β-secretase, fluorescent substrate peptide, 1 hour; read-out: IC50 (μM) Test example 2 (β-secretase inhibitory activity)
T1 construct: purchased Invitrogen
Procedure: Pharmacological Test Example 2: Determination of β-Secretase Inhibitory Activity
The β-secretase inhibitory activity was measured with BACE-1 FRET assay Kit (Invitrogen). The test compounds were prepared using DMSO at 30-fold of their final concentrations and dissolved so that the DMSO concentration would be 10%. To each of the solutions, an equal volume of a recombinant human β-secretase (1 U/mL) dissolved in the assay buffer and an equal volume of fluorescent substrate peptide (2.5 nM) were added and the solutions were left to stand for 1 hour. The fluorescence intensity was measured with a fluorescence plate reader (excitation wavelength: 545 nm; emission wavelength: 590 nm).
The final concentration of each compound at the time of measurement was set at 0.1, 0.3, 1, 3, and 10 μM, at 0.3, 1, 3, 10, and 30 μM, or at 1, 3, 10, 30, and 100 μM.

[2] = tested on: Aβ 1-42 in the brain of APPswe/PS1dE9 Tg mice; test: Aβ aggregation inhibitory activity and Aβ production inhibitory activity in mice with oral administration (brain Aβ 1-42 ELISA); format: in vivo; details: oral 25 or 50 mg/kg bw/day, four weeks (FIG. 3)
Procedure: Pharmacological test example 5: Determination of Aβ aggregation inhibitory activity and Aβ production inhibitory activity in mice with oral administration
To APPswe/PS1dE9 Tg mice (male, 10 to 12 months old, n=8 to 10), the compound of Example 2 was orally administered and the concentration of Aβ in the brain was measured. The administration vehicle was an 80% PEG 400 aqueous solution. The dose volume was 10 mL/kg bw/day and the dose was adjusted to be 25 mg/kg bw/day or 50 mg/kg bw/day. To Vehicle group, 10 mL/kg bw/day of an 80% PEG 400 aqueous solution was administered. Administration was performed with an oral feeding tube (Fuchigami Kikai Company) by gavage and continued for four weeks. After termination of the administration, the mice were sacrificed under pentobarbital anesthesia and the brain was harvested. The brain was homogenized after addition of a 10-fold volume of a phosphoric acid buffer (pH 7.4) and the homogenate was centrifuged at 4° C., 16,000 g for 1 hour. The centrifugal supernatant was used as a soluble protein sample. […] An amount of 100 μL of a reaction stop solution was added to stop the chromogenic reaction and the absorbance was measured at 450 nm with a microplate reader (Bio-Rad). The Aβ concentration was determined from the standard curve produced from the measured values of the standard curve dilution series.

T1 sequence (P56817 46-501): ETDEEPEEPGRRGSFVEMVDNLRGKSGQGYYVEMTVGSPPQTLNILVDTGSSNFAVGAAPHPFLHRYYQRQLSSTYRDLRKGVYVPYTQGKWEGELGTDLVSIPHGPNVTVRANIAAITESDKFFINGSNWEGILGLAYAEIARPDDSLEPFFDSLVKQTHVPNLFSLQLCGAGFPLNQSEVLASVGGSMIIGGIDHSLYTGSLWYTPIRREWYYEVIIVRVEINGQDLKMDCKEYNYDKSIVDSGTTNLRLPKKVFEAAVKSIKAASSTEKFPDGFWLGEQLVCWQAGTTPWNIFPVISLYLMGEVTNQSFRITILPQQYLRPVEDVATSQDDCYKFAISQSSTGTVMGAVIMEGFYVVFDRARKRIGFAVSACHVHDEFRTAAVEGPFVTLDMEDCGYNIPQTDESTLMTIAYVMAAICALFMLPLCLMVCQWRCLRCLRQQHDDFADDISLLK

How did the IC50 [1] turn out when COc1cc(OCc2ccccn2)ccc1/C=C/c1cc(/C=C/c2ccc3cc[nH]c3c2)[nH]n1 [Example 2, 3-[(1E)-2-(1H-indol-6-yl)ethenyl]-5-[(1E)-2-[2-methoxy-4-(2-pyridylmethoxy)phenyl]ethenyl]-1H-pyrazole] was run?
The IC50 was 3 µM.

What about the “amount of insoluble Aβ 1-42 in the brain” value [2] of the same compound?
The value was “decreased in a dose-dependent manner”.

What about the “amount of soluble Aβ 1-42 in the brain” value [2] of the same compound?
The value was “decreased in a dose-dependent manner”.
